≈ marks a conversion by molar mass, not a printed value.
Legend:
Staphylococcus aureus [1] = test: Antimicrobial activity against extended spectrum-lactamase-carbapenemas producing Staphylococcus aureus strain WIS assessed as reduction in bacterial growth incubated for 48 hrs by microdilution method; assay type: functional
[2] = Antimicrobial activity against New Delhi metallo-beta lactamase-1 and oxacillinase -181 producing Klebsiella pneumoniae 50531633 assessed as reduction in bacterial growth incubated for 48 hrs by microdilution method; assay type: functional
Escherichia coli [3] = test: Antimicrobial activity against Escherichia coli ATCC 25922 assessed as reduction in bacterial growth incubated for 48 hrs by microdilution susceptibility test; assay type: functional
[4] = Antimicrobial activity against verona integron-encoded metallo-beta-lactamase -1 producing Klebsiella pneumoniae 50667959 assessed as reduction in bacterial growth incubated for 48 hrs by microdilution method; assay type: functional
[5] = Antimicrobial activity against carbapenemase producing Klebsiella pneumoniae K47-25 assessed as reduction in bacterial growth incubated for 48 hrs by microdilution method; assay type: functional
Pseudomonas aeruginosa [6] = test: Antimicrobial activity against verona integron-encoded metallo-beta-lactamase producing Pseudomonas aeruginosa 50692520 assessed as reduction in bacterial growth incubated for 48 hrs by microdilution method; assay type: functional
Enterococcus faecium [7] = test: Antimicrobial activity against extended spectrum-lactamase-carbapenemas producing Enterococcus faecium strain 50758899 assessed as reduction in bacterial growth incubated for 48 hrs by microdilution method; assay type: functional
Acinetobacter baumannii [8] = test: Antimicrobial activity against oxacillinase-23 producing Acinetobacter baumannii K63-58 assessed as reduction in bacterial growth incubated for 48 hrs by microdilution method; assay type: functional
Pseudomonas aeruginosa [9] = test: Antimicrobial activity against New Delhi metallo-beta lactamase-1 producing Pseudomonas aeruginosa 50692172 assessed as reduction in bacterial growth incubated for 48 hrs by microdilution method; assay type: functional
Escherichia coli [10] = test: Antimicrobial activity against oxacillinase-producing Escherichia coli 50579417 assessed as reduction in bacterial growth incubated for 48 hrs by microdilution method; assay type: functional
Staphylococcus aureus [11] = test: Antimicrobial activity against extended spectrum-lactamase-carbapenemas producing Staphylococcus aureus N315 assessed as reduction in bacterial growth incubated for 48 hrs by microdilution method; assay type: functional
Escherichia coli [12] = test: Antimicrobial activity against verona integron-encoded metallo-beta-lactamase-29-producing Escherichia coli 50639799 assessed as reduction in bacterial growth incubated for 48 hrs by microdilution method; assay type: functional
Acinetobacter baumannii [13] = test: Antimicrobial activity against oxacillinase-58 producing Acinetobacter baumannii K12-21 assessed as reduction in bacterial growth incubated for 48 hrs by microdilution method; assay type: functional
Enterococcus faecium [14] = test: Antimicrobial activity against extended spectrum-lactamase-carbapenemas producing Enterococcus faecium strain TUH.50-22 assessed as reduction in bacterial growth incubated for 48 hrs by microdilution method; assay type: functional
Escherichia coli [15] = test: Antimicrobial activity against New Delhi metallo-beta lactamase-1 producing Escherichia coli 50739822 assessed as reduction in bacterial growth incubated for 48 hrs by microdilution method; assay type: functional
Staphylococcus aureus [16] = test: Antimicrobial activity against extended spectrum-lactamase-carbapenemas producing Staphylococcus aureus NCTC 10442 assessed as reduction in bacterial growth incubated for 48 hrs by microdilution method; assay type: functional
Pseudomonas aeruginosa [17] = test: Antimicrobial activity against verona integron-encoded metallo-beta-lactamase-4 producing Pseudomonas aeruginosa K34-73 assessed as reduction in bacterial growth incubated for 48 hrs by microdilution method; assay type: functional
Enterococcus faecium [18] = test: Antimicrobial activity against extended spectrum-lactamase-carbapenemas producing Enterococcus faecium strain 50901530 assessed as reduction in bacterial growth incubated for 48 hrs by microdilution method; assay type: functional
Acinetobacter baumannii [19] = test: Antimicrobial activity against oxacillinase-23 producing Acinetobacter baumannii K44-35 assessed as reduction in bacterial growth incubated for 48 hrs by microdilution method; assay type: functional
Enterococcus faecium [20] = test: Antimicrobial activity against extended spectrum-lactamase-carbapenemas producing Enterococcus faecium strain 50673722 assessed as reduction in bacterial growth incubated for 48 hrs by microdilution method; assay type: functional
[21] = test system: Corynebacterium glutamicum; test: Antimicrobial activity against Corynebacterium glutamicum ATCC 13032 assessed as reduction in bacterial growth incubated for 48 hrs by microdilution susceptibility test; assay type: functional
Acinetobacter baumannii [22] = test: Antimicrobial activity against oxacillinase-23 producing Acinetobacter baumannii K47-42 assessed as reduction in bacterial growth incubated for 48 hrs by microdilution method; assay type: functional
[23] = Antimicrobial activity against oxacillinase-245 producing Klebsiella pneumoniae 50625602 assessed as reduction in bacterial growth incubated for 48 hrs by microdilution method; assay type: functional
Escherichia coli [24] = test: Antimicrobial activity against New Delhi metallo-beta lactamase-1 producing Escherichia coli 50676002 assessed as reduction in bacterial growth incubated for 48 hrs by microdilution method; assay type: functional
Pseudomonas aeruginosa [25] = test: Antimicrobial activity against verona integron-encoded metallo-beta-lactamase-2 producing Pseudomonas aeruginosa K34-7 assessed as reduction in bacterial growth incubated for 48 hrs by microdilution method; assay type: functional
[26] = Antimicrobial activity against New Delhi metallo-beta lactamase-1 Klebsiella pneumoniae K66-45 assessed as reduction in bacterial growth incubated for 48 hrs by microdilution method; assay type: functional
[27] = Hemolytic activity in human erythrocytes incubated for 1 hr by microplate reader; assay type: functional, cell-based; conditions: erythrocyte
Staphylococcus aureus [28] = test: Antimicrobial activity against extended spectrum-lactamase-carbapenemas producing Staphylococcus aureus strain IHT 99040 assessed as reduction in bacterial growth incubated for 48 hrs by microdilution method; assay type: functional
Enterococcus faecium [29] = test: Antimicrobial activity against extended spectrum-lactamase-carbapenemas producing Enterococcus faecium strain K36-18 assessed as reduction in bacterial growth incubated for 48 hrs by microdilution method; assay type: functional
Pseudomonas aeruginosa [30] = test: Antimicrobial activity against Pseudomonas aeruginosa PAO1 assessed as reduction in bacterial growth incubated for 48 hrs by microdilution susceptibility test; assay type: functional
Staphylococcus aureus [31] = test: Antimicrobial activity against Staphylococcus aureus ATCC 9144 assessed as reduction in bacterial growth incubated for 48 hrs by microdilution susceptibility test; assay type: functional
Escherichia coli [32] = test: Antimicrobial activity against imipenem-type carbapenemase-26 producing Escherichia coli 50857972 assessed as reduction in bacterial growth incubated for 48 hrs by microdilution method; assay type: functional
Staphylococcus aureus [33] = test: Antimicrobial activity against extended spectrum-lactamase-carbapenemas producing Staphylococcus aureus strain 85/2082 assessed as reduction in bacterial growth incubated for 48 hrs by microdilution method; assay type: functional
Acinetobacter baumannii [34] = test: Antimicrobial activity against oxacillinase-24 producing Acinetobacter baumannii K55-13 assessed as reduction in bacterial growth incubated for 48 hrs by microdilution method; assay type: functional
HepG2 = test: Cytotoxicity against human HepG2 cells assessed as reduction in cell viability incubated for 24 hrs by colorimetric tetrazolium assay; assay type: functional, cell-based; conditions: HepG2, 24 h
Pseudomonas aeruginosa [35] = test: Antimicrobial activity against imipenem-type carbapenemase-14 producing Pseudomonas aeruginosa K44-24 assessed as reduction in bacterial growth incubated for 48 hrs by microdilution method; assay type: functional
MRC5 = test: Cytotoxicity against human MRC5 cells assessed as reduction in cell viability incubated for 24 hrs by colorimetric tetrazolium assay; assay type: functional, cell-based; conditions: MRC5, 24 h

Row | Structure (SMILES) | MIC (Staphylococcus aureus [1]) [µg/mL] | MIC [2] [µg/mL] | MIC (Escherichia coli [3]) [µg/mL] | MIC [4] [µg/mL] | MIC [5] [µg/mL] | MIC (Pseudomonas aeruginosa [6]) [µg/mL] | MIC (Enterococcus faecium [7]) [µg/mL] | MIC (Acinetobacter baumannii [8]) [µg/mL] | MIC (Pseudomonas aeruginosa [9]) [µg/mL] | MIC (Escherichia coli [10]) [µg/mL] | MIC (Staphylococcus aureus [11]) [µg/mL] | MIC (Escherichia coli [12]) [µg/mL] | MIC (Acinetobacter baumannii [13]) [µg/mL] | MIC (Enterococcus faecium [14]) [µg/mL] | MIC (Escherichia coli [15]) [µg/mL] | MIC (Staphylococcus aureus [16]) [µg/mL] | MIC (Pseudomonas aeruginosa [17]) [µg/mL] | MIC (Enterococcus faecium [18]) [µg/mL] | MIC [21] [µg/mL] | MIC (Staphylococcus aureus [31]) [µg/mL] | further results
1 | CC(C)(C)c1cc(CC2(Cc3cc(C(C)(C)C)cc(C(C)(C)C)c3)C(=O)N(CCCCN)C(=O)N(CCCCN)C2=O)cc(C(C)(C)C)c1.O=C(O)C(F)(F)F.O=C(O)C(F)(F)F | 2 | 8 | 2 | 8 | 16 | 8 | 2 | 4 | 8 | 4 | 2 | 4 | 4 | 2 | 4 | 2 | 16 | 2 | 0.25 | 1 | MIC (Acinetobacter baumannii [19]): 4 µg/mL; MIC (Enterococcus faecium [20]): 2 µg/mL; MIC (Acinetobacter baumannii [22]): 4 µg/mL; MIC [23]: 8 µg/mL; MIC (Escherichia coli [24]): 8 µg/mL; MIC (Pseudomonas aeruginosa [25]): 8 µg/mL; MIC [26]: 8 µg/mL; EC50 [27]: < 5 µg/mL; MIC (Staphylococcus aureus [28]): 2 µg/mL; MIC (Enterococcus faecium [29]): 2 µg/mL; MIC (Pseudomonas aeruginosa [30]): 4 µg/mL; MIC (Escherichia coli [32]): 4 µg/mL; MIC (Staphylococcus aureus [33]): 2 µg/mL; MIC (Acinetobacter baumannii [34]): 4 µg/mL; IC50 (HepG2): 2 µg/mL; MIC (Pseudomonas aeruginosa [35]): 8 µg/mL; IC50 (MRC5): 1 µg/mL
2 | CC(C)(C)c1ccc(CC2(Cc3ccc(C(C)(C)C)cc3)C(=O)N(CCCCN)C(=O)N(CCCCN)C2=O)cc1.O=C(O)C(F)(F)F.O=C(O)C(F)(F)F | 8 | 16 | 4 | 32 | > 32 | > 32 | 8 | 16 | > 32 | 8 | 8 | 8 | 16 | 8 | 8 | 8 | > 32 | 4 | 1 | 4 | MIC (Acinetobacter baumannii [19]): 32 µg/mL; MIC (Enterococcus faecium [20]): 8 µg/mL; MIC (Acinetobacter baumannii [22]): 16 µg/mL; MIC [23]: 16 µg/mL; MIC (Escherichia coli [24]): 4 µg/mL; MIC (Pseudomonas aeruginosa [25]): > 32 µg/mL; MIC [26]: 32 µg/mL; EC50 [27]: 145 µg/mL; MIC (Staphylococcus aureus [28]): 8 µg/mL; MIC (Enterococcus faecium [29]): 8 µg/mL; MIC (Pseudomonas aeruginosa [30]): 8 µg/mL; MIC (Escherichia coli [32]): 4 µg/mL; MIC (Staphylococcus aureus [33]): 8 µg/mL; MIC (Acinetobacter baumannii [34]): 16 µg/mL; IC50 (HepG2): 3 µg/mL; MIC (Pseudomonas aeruginosa [35]): > 32 µg/mL; IC50 (MRC5): 1 µg/mL
3 | CN(C)[C@@H]1C(O)=C(C(N)=O)C(=O)[C@@]2(O)C(O)=C3C(=O)c4c(O)cccc4[C@@](C)(O)[C@H]3[C@H](O)[C@@H]12 [OXYTETRACYCLINE] |  |  | 20 (≈ 43.4 µM) |  |  |  |  |  |  |  |  |  |  |  |  |  |  |  | 2.5 (≈ 5.43 µM) | 0.65 (≈ 1.41 µM) | 
4 | NCCCCN1C(=O)N(CCCCN)C(=O)C(Cc2cc(C(F)(F)F)cc(C(F)(F)F)c2)(Cc2cc(C(F)(F)F)cc(C(F)(F)F)c2)C1=O.O=C(O)C(F)(F)F.O=C(O)C(F)(F)F | 16 | 32 | 16 | 32 | > 32 | 32 | 16 | 32 | 32 | 16 | 16 | 16 | 16 | 8 | 16 | 16 | 32 | 8 | 4 | 16 | MIC (Acinetobacter baumannii [19]): 32 µg/mL; MIC (Enterococcus faecium [20]): 8 µg/mL; MIC (Acinetobacter baumannii [22]): 32 µg/mL; MIC [23]: 32 µg/mL; MIC (Escherichia coli [24]): 16 µg/mL; MIC (Pseudomonas aeruginosa [25]): 32 µg/mL; MIC [26]: 32 µg/mL; EC50 [27]: 177 µg/mL; MIC (Staphylococcus aureus [28]): 16 µg/mL; MIC (Enterococcus faecium [29]): 16 µg/mL; MIC (Pseudomonas aeruginosa [30]): 16 µg/mL; MIC (Escherichia coli [32]): 8 µg/mL; MIC (Staphylococcus aureus [33]): 16 µg/mL; MIC (Acinetobacter baumannii [34]): 32 µg/mL; IC50 (HepG2): 9 µg/mL; MIC (Pseudomonas aeruginosa [35]): 32 µg/mL; IC50 (MRC5): 17 µg/mL
5 | N=C(N)NCCCCN1C(=O)N(CCCCNC(=N)N)C(=O)C(Cc2ccc(C(F)(F)F)cc2)(Cc2ccc(C(F)(F)F)cc2)C1=O.O=C(O)C(F)(F)F.O=C(O)C(F)(F)F | 4 | > 32 | 8 | > 32 | > 32 | > 32 | > 32 | > 32 | > 32 | 32 | 4 | 16 | > 32 | 32 | 32 | 4 | > 32 | 8 | 0.25 | 2 | MIC (Acinetobacter baumannii [19]): > 32 µg/mL; MIC (Enterococcus faecium [20]): 32 µg/mL; MIC (Acinetobacter baumannii [22]): > 32 µg/mL; MIC [23]: > 32 µg/mL; MIC (Escherichia coli [24]): 32 µg/mL; MIC (Pseudomonas aeruginosa [25]): > 32 µg/mL; MIC [26]: > 32 µg/mL; EC50 [27]: > 449 µg/mL; MIC (Staphylococcus aureus [28]): 8 µg/mL; MIC (Enterococcus faecium [29]): 32 µg/mL; MIC (Pseudomonas aeruginosa [30]): 64 µg/mL; MIC (Escherichia coli [32]): 16 µg/mL; MIC (Staphylococcus aureus [33]): 4 µg/mL; MIC (Acinetobacter baumannii [34]): > 32 µg/mL; IC50 (HepG2): 104 µg/mL; MIC (Pseudomonas aeruginosa [35]): > 32 µg/mL; IC50 (MRC5): 74 µg/mL
